According to article PMC7473970, “Preformulation Studies of a Stable PTEN-PDZ Lipopeptide Able to Cross an In Vitro Blood-Brain-Barrier Model as a Potential Therapy for Alzheimer’s Disease” (Pharmaceutical Research, 2020):
Where two headings read alike, the source gives them in different places. Residues, ends and D or L forms follow the SMILES beside them.

Experiments:
[1] = In vitro stability in simulated intestinal fluid (mouse intestinal wash); format: in vitro ADME; settings: 120 μL of 5 mM DMSO stock in 1080 μL, 37°C, 0-1440 min, HPLC-UV 220 nm, n = 3; for k: Simulated intestinal fluid = undiluted pooled CD-1 mouse duodenum/ileum wash in 50 mM phosphate buffer pH 6.63, 100 rpm, one phase decay, least square fit; for t1/2 (h) / t1/2 (min): Simulated intestinal fluid = undiluted pooled CD-1 mouse duodenum/ileum wash, phosphate buffer pH 6.63, one phase decay fit
Description: (§1) The samples were analyzed at 40°C on a Phenomenex Lichrosorb RP8 C8 column (4.0 mm × 250 mm, 5 μm), using the gradient elution method on an Agilent HPLC system (Agilent Technologies, Cheadle, UK) equipped with an 1100 series degasser, quaternary pump, autosampler, and column heater, and attached to an Agilent 1200 series PDA detector and a 1250 series fluorescent detector. The flow rate was set at 1.2 mL min^-1, and the injection volume was set at 40 μL, while detection was performed at 220 nm. The mobile phase was a mixture of mobile phase A (0.1% TFA in water) and phase B (0.08% TFA in acetonitrile), and in the first 5 min, the mobile phase was an 8:2 ratio of A:B (v/v) and from 5 to 15 min the percentage of B was raised from 8:2 to 1:9 (v/v). Linear calibration curves were constructed for both peptides between 0.1–100 μg.mL^−1. The retention time for the human Lau–PTEN-PDZ, mouse Lau–PTEN-PDZ, human Myr–PTEN-PDZ, and mouse Myr–PTEN-PDZ was 12.03, 11.60, 13.68, and 13.91, respectively.
The duodenum and ileum were excised from 10 non-fasted CD-1 male mice (7 weeks-old: Charles River Laboratories) that were sacrificed with CO2. Each duodenum and ileum were washed with 6 ml of phosphate buffer (50 mM, pH 6.63), and all the washes were pooled prior to centrifugation at 4000 rpm for 15 min at 4°C (Heraeus Multifuge 3sf) ([7],[15]). The intestinal wash was removed and frozen at −80°C prior to using it in stability studies without further dilution. Peptides stocks (5 mM in DMSO) were prepared and maintained at −20°C prior to performing stability studies. A stock peptide solution (120 μL) was added to the diluted pre-warmed (37°C) intestinal wash (1080 μL) with agitation at 100 rpm (Grant Aqua Waterbath), and samples (80 μL) were taken at 0, 15, 30, 45, 60, 90, 120, 180, 240, 360 and 1440 min, and diluted with ice-cold glacial acetic acid (17.5 M): acetonitrile (5:95 v/v, 80 μL) to quench the enzyme activity. Samples were vortexed and left in −80°C at least overnight to maximize protein precipitation, and after vortexing again for 15 min and centrifuging, the supernatant was analyzed by HPLC as described above.

[2] = In vitro stability in 50% liver homogenate; format: in vitro ADME, mouse; settings: 37°C; for k: 50% w/v CD-1 mouse liver homogenate in PBS pH 7.4, 120 μL of 5 mM DMSO stock in 1080 μL, 100 rpm, 0-1440 min; for k / t1/2 (h) / t1/2 (min): HPLC-UV 220 nm, one phase decay, least square fit, n = 3; for t1/2 (h) / t1/2 (min): 50% w/v mouse liver homogenate in PBS pH 7.4
Description: as §1
(§2) The liver and brain of the mice were excised from […] CD-1 male mice (7 weeks-old: Charles River Laboratories) sacrificed with CO2, and the tissue was frozen immediately with liquid nitrogen prior to storage at −80°C. The liver and brain tissue were thawed and homogenized on ice in PBS (2 mL/g of tissue) using a glass 3 mL tissue homogenizer (20 strokes per sample), and the liver and brain homogenates were centrifuged (Heraeus Multifuge 3sf, Fisher Scientific, Basingstoke, UK) at 4300 g for 60 min at 4°C and at 3000 g for 20 min at 4°C, respectively. The supernatant was stored at −80°C, diluted 1:1 (v/v) with PBS (1x, pH 7.4), and used in stability studies. Peptides stocks (5 mM in DMSO) were prepared and maintained at −20°C prior to performing stability studies. These stock solutions (120 μL) were added to the diluted pre-warmed (37°C) liver or brain homogenate (50% v/v, 1080 μL) with agitation (100 rpm: Grant Aqua Waterbath), and samples (80 μL) were taken at 0, 5, 10, 15, 30, 45, 60, 90, 120, 180, 240, 360 and 1440 min, and diluted with ice-cold acetonitrile (80 μL). Samples were vortexed and left at −80°C at least overnight to allow for maximum protein precipitation, the samples were vortexed again for 15 min, centrifuged and the supernatant was analyzed by HPLC as described above.
(§3) The total protein concentration in the homogenates was determined using the Bradford protein assay ([7],[15]) and BSA as a standard. Ten stock solutions of BSA were prepared in PBS between 0.1–1 mg mL^−1, and 40 μL of each of the diluted stocks were added to 1.2 mL of Bradford reagent and incubated at room temperature for 5 min. The absorbance was recorded at 595 nm using a Multiskan GO spectrophotometer and the SkanIt software (Thermo Scientific, Paisley, UK). A linear calibration curve was obtained in this range that was used to extrapolate the protein content of 1:100 v/v stock solutions of 50% mouse plasma, liver, and brain homogenates diluted in PBS.

[3] = In vitro stability in 50% v/v mouse plasma; format: in vitro ADME; settings: 37°C, HPLC-UV 220 nm, one phase decay, least square fit, n = 3; for k: 50% v/v CD-1 mouse plasma (K3 EDTA) in PBS, 120 μL of 5 mM DMSO stock in 1080 μL, 100 rpm, 0-1440 min
Description: CD-1 male mice (7 weeks old: Charles River Laboratories) were sacrificed with CO2, and blood was collected in K3E EDTA spray-coated vacutainers and kept on ice prior to centrifugation at 3000 rpm for 15 min at 4°C (Heraeus Multifuge 3sf). Mouse plasma samples were stored at −80°C before use in stability studies. Study was approved by the University of Portsmouth Animal Welfare and Ethical Review Body (UoP AWERB body, 817).
For testing, the plasma was diluted (1:1) in PBS without phenol and pre-warmed to 37°C. Peptides stocks (5 mM in DMSO) were prepared and maintained at −20°C before performing the stability studies. Peptide stock solutions (120 μL) were added to pre-warmed diluted plasma (50% v/v, 1080 μL) and maintained at 37°C with agitation (100 rpm: Grant Aqua Waterbath, Royston, UK). Samples (80 μL) were taken at 0, 3, 6,9, 15, 30, 45, 60, 90, 120, 180, 240, 360 and 1440 min, diluted with ice-cold acetonitrile (80 μL), vortexed and left in −80°C at least overnight to favor maximal protein precipitation. The samples were then vortexed again for 15 min (SciQuip microplate shaker, Shropshire, UK), centrifuged in a Thermo Sci Jouan B4i Centrifuge (Hemel Hampstead, UK) and the supernatant was transferred to an HPLC vial (200 μL).
as §1

[4] = In vitro stability in 50% brain homogenate; format: in vitro ADME, mouse; settings: 37°C, HPLC-UV 220 nm, one phase decay, least square fit, n = 3; for k: 50% w/v CD-1 mouse brain homogenate in PBS pH 7.4, 120 μL of 5 mM DMSO stock in 1080 μL, 100 rpm, 0-1440 min; for t1/2 (h) / t1/2 (min): 50% w/v mouse brain homogenate in PBS pH 7.4
Description: as §1, §2, §3

[5] = Permeability across in vitro 2D human blood-brain barrier model; format: in vitro ADME
[6] = read-out: Papp0-4h, Experiment 2
[7] = 50% w/v mouse liver homogenate, two phase decay fit, fast phase
[8] = 50% w/v mouse liver homogenate, two phase decay fit, slow phase

Row | k [1] [h⁻¹] | t1/2 (h) [1] [h] | t1/2 (min) [1] [min] | k [2] [h⁻¹] | t1/2 (h) [2] [h] | t1/2 (min) [2] [min] | k [3] [h⁻¹] | t1/2 (h) ([3]; 50% v/v mouse plasma in PBS) | t1/2 (min) ([3]; 50% v/v mouse plasma in PBS) | k [4] [h⁻¹] | t1/2 (h) [4] [h] | t1/2 (min) [4] [min] | Papp A→B at 100 μM [5, 6] [×10⁻⁶ cm/s] | Structure (SMILES) | also measured
1 | 0.23 | 2.96 | 177.96 | 1.15 | 0.60 | 36.28 | 4.60 | 0.15 | 9.05 | 1.90 | 0.36 | 21.87 | 5.57 ± 0.29 | CCCCCCCCCCCC(=O)N[C@@H](CCC(N)=O)C(=O)N[C@@H](Cc1c[nH]cn1)C(=O)N[C@H](C(=O)N[C@@H](CCC(N)=O)C(=O)N[C@H](C(=O)N[C@H](C(=O)N[C@@H](CCCCN)C(=O)N[C@H](C(=O)O)C(C)C)[C@@H](C)O)[C@@H](C)CC)[C@@H](C)O [Human Lau-PTEN-PDZ] (HELM PEPTIDE1{[CCCCCCCCCCCC(=O)[*:2]].Q.H.T.Q.I.T.K.V}$$$$V2.0) | 
2 | 2.34 | 0.30 | 17.77 | 0.73 | 0.95 | 57.14 | 0.12 | 5.86 | 351.84 | 3.48 | 0.20 | 11.95 |  | CCCCCCCCCCCC(=O)N[C@@H](CCC(N)=O)C(=O)N[C@@H](Cc1c[nH]cn1)C(=O)N[C@@H](CO)C(=O)N[C@@H](CCC(N)=O)C(=O)N[C@H](C(=O)N[C@H](C(=O)N[C@@H](CCCCN)C(=O)N[C@H](C(=O)O)C(C)C)[C@@H](C)O)[C@@H](C)CC [Mouse Lau-PTEN-PDZ] (HELM PEPTIDE1{[CCCCCCCCCCCC(=O)[*:2]].Q.H.S.Q.I.T.K.V}$$$$V2.0) | half-life at 0.5 mM ([3]; male, CD-1, 50% v/v mouse plasma (K3 EDTA) diluted in PBS, 50% v/v mouse plasma in PBS): 354 min; Papp A→B at 100 μM ([5]; read-out: Papp0-4h, Experiment 1): 6.28 ± 1.85 ×10⁻⁶ cm/s
3 | 0.25 |  |  | 0.04 | 18.5 | 1110 | 6.17 | 0.11 | 6.74 | 4.20 | 0.16 | 9.89 | 3.77 ± 0.39 | CCCCCCCCCCCCCC(=O)N[C@@H](CCC(N)=O)C(=O)N[C@@H](Cc1c[nH]cn1)C(=O)N[C@H](C(=O)N[C@@H](CCC(N)=O)C(=O)N[C@H](C(=O)N[C@H](C(=O)N[C@@H](CCCCN)C(=O)N[C@H](C(=O)O)C(C)C)[C@@H](C)O)[C@@H](C)CC)[C@@H](C)O [Human Myr-PTEN-PDZ] (HELM PEPTIDE1{[CCCCCCCCCCCCCC(=O)[*:2]].Q.H.T.Q.I.T.K.V}$$$$V2.0) | k (fast) [2, 7]: 3.05 h⁻¹; t1/2 (h) fast [2, 7]: 0.23 h; t1/2 (min) fast [2, 7]: 13.63 min; k (slow) [2, 8]: 0.0005 h⁻¹; t1/2 (h) slow [2, 8]: 1510 h; t1/2 (min) slow [2, 8]: 90,600 min
